The results in this text go back to patent publication US9790235B2, “MK2 inhibitors and uses thereof” (Celgene CAR LLC, priority 2014, dated 2017).

In test [1] the target is T1, MK2 (Homo sapiens (Human), UniProt P49137).
Method: Aliquots of the resulting mixture (6 μL each) were diluted with 0.2% trifluoroacetic acid (TFA, 10 μL) prior to micro C4 ZipTipping directly onto the MALDI target using sinapinic acid as the desorption matrix (10 mg/ml in 0.1% TFA:acetonitrile 50:50, v/v). The centroid mass of the target protein in the control sample was compared with the centroid mass of the target protein incubated with compound. A shift in the centroid mass of the treated protein compared to the untreated protein was divided by the molecular weight of the compound. This number corresponds to the percentage of modified protein (a measure of the proportion of total target protein covalently bound to the test compound) after one hour incubation.
3 μL of magnetic Ni-NTA beads were added to the 6 μL aliquots of sample, washed, eluted with 0.2% trifluoroacetic acid (TFA, 2 μL), and spotted directly onto the MALDI target using sinapinic acid as the desorption matrix (10 mg/ml in 0.1% TFA:acetonitrile 50:50, v/v). The centroid mass of the target protein in the control sample was compared with the centroid mass of the target protein incubated with compound. A shift in the centroid mass of the treated protein compared to the untreated protein was divided by the molecular weight of the compound. This number corresponds to the percentage of modified protein (a measure of the proportion of total target protein covalently bound to the test compound) after one hour incubation.
The target of test [2] is p38α activated, mitogen-activated protein kinase-activated protein kinase 2 (MAPKAP-K2 or MK2) enzyme (Homo sapiens (Human), UniProt P49137). The test can be described thus: MK2 Omnia continuous-read kinase assay for compound potency. The test is classed as biochemical. The settings on record: read-out: MK2 IC50. The method in brief: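 Continuous fluorescence read (λex360/λem485) with 0.4 nM p38α-activated MK2, 10 μM ATP (apparent KM) and 10 μM S/T3-Sox peptide, monitored over 120 min at room temperature. Background-corrected initial slopes gave % inhibition and IC50 with Hill slope; exponential fits gave kobs, yielding apparent kinact/KI.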

Test [3] has as its target T1, MK2. Kind of test: MK2 cellular assay, total and phospho-Hsp27 (Serine 78) by MSD ELISA (Thp1). The test is classed as cell-based. To be noted: Thp-1 cells, 1 hour compound, 50 ng/mL LPS 45 minutes, p-HSP27 (Ser78)/total HSP27; read-out: pHSP27 signaling EC50. In short, it runs like this: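 PMA-differentiated (10 ng/mL, 72 h) Thp-1 cells were pretreated with compound (top 3000 nM) for 1 h at 37 °C, then stimulated with 50 ng/mL LPS for 45 min. Lysate phospho-Hsp27 (Ser78) and total Hsp27 were read by MSD electrochemiluminescence ELISA, and the value is expressed as percent phospho/total signal per well.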
(In general: An ELISA detects its analyte on a solid surface through an enzyme-linked reagent.)

[4] abbreviates: percentage of modified protein after 60 minutes at room temperature, 10-fold excess of compound, MALDI (I-1 to I-50), magnetic bead MALDI (I-51 to I-129).
Setting [5] is: [MK-2]=0.4 nM, [ATP]=10 μM, [ST3-Sox]=10 μM.

Like-named read-outs stand apart in the source and are kept apart here.
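Wherever Mass Modification is given: covalent binding read from centroid mass shift of compound-treated versus untreated intact MK2, shift divided by compound molecular weight, giving fraction of total protein bound.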

Sequence of p38α activated, mitogen-activated protein kinase-activated protein kinase 2 (MAPKAP-K2 or MK2) enzyme (P49137 whole entry): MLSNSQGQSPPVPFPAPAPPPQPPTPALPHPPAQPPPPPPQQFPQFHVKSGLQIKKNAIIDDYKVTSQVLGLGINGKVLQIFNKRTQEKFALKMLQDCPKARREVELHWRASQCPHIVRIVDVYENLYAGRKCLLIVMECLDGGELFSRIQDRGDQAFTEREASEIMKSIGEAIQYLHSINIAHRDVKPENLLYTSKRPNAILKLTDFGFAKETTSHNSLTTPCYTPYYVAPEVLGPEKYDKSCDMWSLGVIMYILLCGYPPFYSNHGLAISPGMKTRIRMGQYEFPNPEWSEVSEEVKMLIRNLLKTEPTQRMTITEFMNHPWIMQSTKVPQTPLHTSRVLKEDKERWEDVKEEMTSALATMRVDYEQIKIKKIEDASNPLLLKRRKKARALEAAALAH
T1 sequence (P49137 whole entry): as above

As to `C[C@@H]1CNc2c(sc3ccc4nc(Oc5cc(Cl)nc(CO)n5)ccc4c23)C(=O)N1` [I-68, (R)-3-((6-chloro-2-(hydroxymethyl)pyrimidin-4-yl)oxy)-10-methyl-9,10,12-tetrahydro-8H-[1,4]diazepino[5′,6′:4,5]thieno[3,2-f]quinolin-8-one], the “Mass Modification” value on MK2 [1] (setting [4]) is “E (mass modification of ≧70%)”. Moreover, the IC50 (commonly the concentration needed to halve the response being measured) in test [2] (setting [5]) is less than 100 nM. In addition, on MK2 [3], the EC50 (usually the concentration needed to bring the measured effect to its halfway point) was less than 100 nM.
Consider `C[C@@H]1CNc2c(sc3ccc4nc(Oc5nc(Cl)nc(N6CCCC6)n5)ccc4c23)C(=O)N1` [I-62, (R)-3-((4-chloro-6-(pyrrolidin-1-yl)-1,3,5-triazin-2-yl)oxy)-10-methyl-9,10,11,12-tetrahydro-8H-[1,4]diazepino[5′,6′:4,5]thieno[3,2-f]quinolin-8-one], for which the “Mass Modification” value at MK2 [1] (setting [4]) is “E (mass modification of ≧70%)”. For the same compound, in test [2] (setting [5]), the IC50 is less than 100 nM. Further, the EC50 on MK2 [3] was 101 to 500 nM.
For `C[C@@H]1CNc2c(sc3ccc4nc(Nc5nc(Cl)cc(OCCN6CCN(C)CC6)n5)ccc4c23)C(=O)N1` [I-61, (R)-3-((4-chloro-6-(2-(4-methylpiperazin-1-yl)ethoxy)pyrimidin-2-yl)amino)-10-methyl-9,10,11,12-tetrahydro-8H-[1,4]diazepino[5′,6′:4,5]thieno[3,2-f]quinolin-8-one], in that order: “G (mass modification ≦30%)”, less than 100 nM and greater than 1000 nM.
For `CCN1CCN(Cc2cnc(Cl)nc2Oc2ccc3c(ccc4sc5c(c43)NC[C@@H](C)NC5=O)n2)CC1` [I-94, (R)-3-((2-chloro-5-((4-ethylpiperazin-1-yl)methyl)pyrimidin-4-yl)oxy)-10-methyl-9,10,11,12-tetrahydro-8H-[1,4]diazepino[5′,6′:4,5]thieno[3,2-f]quinolin-8-one], in that order: “E (mass modification of ≧70%)”, 101 to 500 nM and greater than 1000 nM.
Consider `C[C@@H]1CNc2c(sc3ccc4nc(Oc5nc(Cl)nc6c5CN(C)CC6)ccc4c23)C(=O)N1` [I-126, (R)-3-((2-chloro-6-methyl-5,6,7,8-tetrahydropyrido[4,3-d]pyrimidin-4-yl)oxy)-10-methyl-9,10,11,12-tetrahydro-8H-[1,4]diazepino[5′,6′:4,5]thieno[3,2-f]quinolin-8-one], for which, at MK2 [1], the “Mass Modification” value is “E (key: E: mass modification of ≧70%; F: mass modification of 31-69%; G: mass modification ≦30%)”. Also, the IC50 in test [2] is less than 100 nM. Besides, the EC50 on MK2 [3] is less than 100 nM.
As to `NC(=O)c1cnc(Cl)nc1Nc1ccc2c(ccc3sc4c(c32)NC[C@@H](CO)NC4=O)n1` [I-30, (S)0-2-chloro-4-((10-(hydroxymethyl)-8-oxo-9,10,11,12-tetrahydro-8H-[1,4]diazepino[5′,6′:4,5]thieno[3,2-f]quinolin-3-yl)amino)pyrimidine-5-carboxamide], the “Mass Modification” value on MK2 [1] (setting [4]) was “E (mass modification of ≧70%)”. For the same compound, the IC50 in test [2] (setting [5]) was less than 100 nM. At MK2 [3], the EC50 is 101 to 500 nM.
For `C[C@@H]1CNc2c(sc3ccc4nc(Oc5cc(CN(C)C(C)(C)C)nc(Cl)n5)ccc4c23)C(=O)N1` [I-118, (R)-3-((6-((tert-butyl(methyl)amino)methyl)-2-chloropyrimidin-4-yl)oxy)-10-methyl-9,10,11,12-tetrahydro-8H-[1,4]diazepino[5′,6′:4,5]thieno[3,2-f]quinolin-8-one], in that order: “E (mass modification of ≧70%)”, 501 to 999 nM and 101 to 500 nM.
`C[C@@H]1CNc2c(sc3ccc4nc(N(C)c5nc(Cl)ncc5C(N)=O)ccc4c23)C(=O)N1` [I-34, (R)-2-chloro-4-(methyl(10-methyl-8-oxo-9,10,11,12-tetrahydro-8H-[1,4]diazepino[5′,6′:4,5]thieno[3,2-f]quinolin-3-yl)amino)pyrimidine-5-carboxamide]: the “Mass Modification” value on MK2 [1] (setting [4]) is recorded as “G (mass modification ≦30%)”. Also, the IC50 in test [2] (setting [5]) is 501 to 999 nM. In addition, the EC50 on MK2 [3] was greater than 1000 nM.
For `C[C@@H]1CNc2c(sc3ccc4nc(Sc5cc(F)ncn5)ccc4c23)C(=O)N1` [I-54, (R)-3-((6-fluoropyrimidin-4-yl)thio)-10-methyl-9,10,11,12-tetrahydro-8H-[1,4]diazepino[5′,6′:4,5]thieno[3,2-f]quinolin-8-one], in that order: “E (mass modification of ≧70%)”, less than 100 nM and greater than 1000 nM.
For `C[C@@H]1CNc2c(sc3ccc4nc(Nc5nc(Cl)ncc5C(=O)N5CC[C@@H](N(C)C)C5)ccc4c23)C(=O)N1` [I-24, (R)-3-((2-chloro-5-((R)-3-(dimethylamino)pyrrolidine-1-carbonyl)pyrimidin-4-yl)amino)-10-methyl-9,10,11,12-tetrahydro-8H-[1,4]diazepino[5′,6′:4,5]thieno[3,2-f]quinolin-8-one], in that order: “G (mass modification ≦30%)”, 501 to 999 nM and greater than 1000 nM.
Regarding `Cc1nc(F)cc(Oc2ccc3c(ccc4sc5c(c43)NC[C@@H](C)NC5=O)n2)n1` [I-65, (R)-3-((6-fluoro-2-methylpyrimidin-4-yl)oxy)-10-methyl-9,10,11,12-tetrahydro-8H-[1,4]diazepino[5′,6′:4,5]thieno[3,2-f]quinolin-8-one], the “Mass Modification” value on MK2 [1] (setting [4]) is “E (mass modification of ≧70%)”. Further, the IC50 in test [2] (setting [5]) was less than 100 nM. On MK2 [3], the EC50 was 101 to 500 nM.
For `C[C@@H]1CNc2c(sc3ccc4nc(Oc5nc(Cl)ncc5C5=CCOCC5)ccc4c23)C(=O)N1` [I-124, (R)-3-((2-chloro-5-(3,6-dihydro-2H-pyran-4-yl)pyrimidin-4-yl)oxy)-10-methyl-9,10,11,12-tetrahydro-8H-[1,4]diazepino[5′,6′:4,5]thieno[3,2-f]quinolin-8-one], in that order: “E (mass modification of ≧70%)”, less than 100 nM and 101 to 500 nM.
Regarding `COc1nc(Cl)nc(Oc2ccc3c(ccc4sc5c(c43)NC[C@@H](C)NC5=O)n2)n1` [I-76, (R)-3-((4-chloro-6-methoxy-1,3,5-triazin-2-yl)oxy)-10-methyl-9,10,11,12-tetrahydro-8H-[1,4]diazepino[5′,6′:4,5]thieno[3,2-f]quinolin-8-one], the “Mass Modification” value at MK2 [1] (setting [4]) was “E (mass modification of ≧70%)”. Moreover, the IC50 in test [2] (setting [5]) is less than 100 nM. The EC50 on MK2 [3] is greater than 1000 nM.
For `C[C@@H]1CNc2c(sc3ccc4nc(Nc5cc(F)ncc5C(N)=O)ccc4c23)C(=O)N1` [I-29, (R)-6-fluoro-4-((10-methyl-8-oxo-9,10,11,12-tetrahydro-8H-[1,4]diazepino[5′,6′:4,5]thieno[3,2-f]quinolin-3-yl)amino)nicotinamide], in that order: “G (mass modification ≦30%)”, less than 100 nM and greater than 1000 nM.
For the compound `C[C@@H]1CNc2c(sc3ccc4nc(Oc5nc(Cl)nc(N6CCOCC6)n5)ccc4c23)C(=O)N1` [I-63, (R)-3-((4-chloro-6-morpholino-1,3,5-triazin-2-yl)oxy)-10-methyl-9,10,11,12-tetrahydro-8H-[1,4]diazepino[5′,6′:4,5]thieno[3,2-f]quinolin-8-one], the “Mass Modification” value on MK2 [1] (setting [4]) was “E (mass modification of ≧70%)”. In test [2] (setting [5]), the IC50 is less than 100 nM. For the same compound, the 50% effective concentration (EC50) on MK2 [3] is less than 100 nM.
